Measurements published in PMC6803640, “Oligomeric state, hydrodynamic properties and target recognition of human Calcium and Integrin Binding protein 2 (CIB2)” (Scientific Reports, 2019).
Several values for one entry are separate records, joined by “and”; a condition that tells them apart may be missing. Identical values can stand only once. Like-named read-outs stand apart in the source and are kept apart here. Where a SMILES comes first, the peptide text is derived from it.

Key:
[1] = target: T1, human CIB2 (Homo sapiens, UniProt O75838); assay: SPR interaction of α7B peptides with immobilized CIB2; format: binding; conditions: for ka2 association rate constant, CIB2-α7B_M-CIB2 complex / koff / Kd: His-CIB2; for ka2 association rate constant, CIB2-α7B_M-CIB2 complex / kon / koff: average ± SEM; for kon: His-CIB2 on His-cap chip, peptide 230 nM–30 μM, read-out: ka1 association rate constant, CIB2-α7B_M complex; for Kd: ratio kd1/ka1, read-out: KD^app1 apparent affinity for the first binding event
T1 construct: made in house
T1 sequence (O75838 1-187): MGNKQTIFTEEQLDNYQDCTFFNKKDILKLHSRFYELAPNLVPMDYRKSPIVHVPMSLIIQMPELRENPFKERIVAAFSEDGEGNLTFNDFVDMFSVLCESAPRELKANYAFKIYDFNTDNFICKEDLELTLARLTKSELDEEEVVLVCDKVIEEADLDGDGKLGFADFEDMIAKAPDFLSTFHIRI
Source text: SPR was also used to study quantitatively the interaction of CIB2 with one of its established targets, namely the cytoplasmic domain of integrin α7B[3],[7]. Three different peptides were used in the interaction experiments. A peptide corresponding to the membrane proximal segment of the cytoplasmic domain of α7B integrin (α7B_M), another peptide with the same amino acid content, but randomized sequence (α7B_Scrb) and a peptide covering the C-terminal region of the cytoplasmic domain of α7B integrin (α7B_C). Three different approaches were used. In a first approach, His-tagged CIB2 was initially coupled to the surface of a His-cap sensor chip (see Methods), thus ensuring homogeneous site-specific orientation, and then blocked via standard amine coupling. […] The minor differences in the spectra at the level of the phenylalanine band can be ascribed to the TEV-protease recognition site (ENLYFQ), uncleaved in the His-tagged protein. […] In a third approach, we used the same low levels of CIB2 immobilization via amine coupling described in the experiments to probe CIB2 dimerization (100–200 RU) and flowed the three peptides.
The second approach (direct peptide immobilization) led to very low signals and unreproducible results and was not pursued any further. […] In spite of such differences, which might reflect both the heterogeneity of the surface and the different chemistry of immobilization, interaction results were consistent with one another. […] It should be noted that both Huang et al.[7] and Häger et al.[3] used peptides from mouse integrin, while we used the corresponding human sequences, which in the case of α7B_C lacks the tryptophan residue present in the mouse sequence. It is not uncommon that fluorescence spectroscopy interaction studies based on the peptide intrinsic fluorescence (CIB2 has no tryptophan residue) reveal some non-specific binding, especially when a highly hydrophobic protein such as CIB2 is the ligand. […] It cannot be excluded that a similar phenomenon occurred for murine α7B_C in the work by Häger et al.[3]. Our present results, based on accurate, label-free interaction studies clearly identify the region covered by α7B_M as the preferential binding site of CIB2 with α7B integrin.
SPR titrations of α7B_M over homogeneously coupled CIB2 (approach 1) gave very reproducible results and were performed both in the presence of 1 mM Mg^2+ and in the co-presence of 1 mM Mg^2+ and 2 mM Ca^2+. Peptide concentration was varied in the 230 nM–30 μM range. As anticipated, sensorgrams could not fit to a 1:1 binding model, and the kinetic model that better fit the data was a bivalent analyte model (see Methods), in which one α7B_M peptide could bind to two CIB2 molecules. According to this scheme, binding of the peptide to the first CIB2 molecule would direct the binding to the second one, thus resulting in two sets of kinetic constants.
Details of the protein and peptide immobilization procedures and experimental settings are elucidated in the Supplementary Information.
Kinetic data were fitted according to a bivalent analyte model, were a CIB2 monomer (L) can bind an α7B_M peptide (A), and the resulting complex (AL) can bind to a second CIB2 molecule (AL2), with all processes being possibly reversible, as follows: A+L→ka1ALAL→kd1A+LAL+L→ka2AL2AL2→kd2AL+L […]

[2] = cited from earlier work
Source text: Moreover, DLS experiments performed with the samples collected immediately after elution from the SEC column measured a relatively high hydrodynamic diameter (d^Mg = 8.43 nm and d^Ca = 8.18 nm), which was also interpreted as an evidence of a dimeric protein[8]. […] This shoulder (here denominated A1) was collected together with the main peak (A2) in our previous work[8]. In contrast, the two fractions were separately collected and analyzed in the present study.

[3] = CIB2 stability at 25 °C without trypsin (SDS-PAGE); format: physicochemical; conditions: 10 µM CIB2, 10 minutes at 25 °C; EDTA, Mg^2+, Mg^2+ + Ca^2+
Procedure: Figure 5 CIB2 limited proteolysis. (A) 10 µM CIB2 was incubated at 25 °C in the presence of 1 mM EDTA (Apo), 500 µM EGTA + 1 mM Mg^2+ (Mg^2+) and 1 mM Mg^2+ + 2 mM Ca^2+ for 10 minutes at 25 °C. Samples were boiled and loaded in a 18% SDS polyacrylamide gel. (B) Limited proteolysis was performed incubating trypsin with 25 µM CIB2 in the same concentrations of ions used for (A) (protein:enzyme ratio was 100:1). Samples were collected at different times, boiled and loaded on a 18% SDS-PAGE. Both gels run for 45–50 min, then they were Coomassie Blue-stained. The figure results from two separate gels, which have been reported in full length in Fig. S6.

[4] = reducing conditions, different cation-bound states; cited from earlier work
Source text: Moreover, DLS experiments performed with the samples collected immediately after elution from the SEC column measured a relatively high hydrodynamic diameter (d^Mg = 8.43 nm and d^Ca = 8.18 nm), which was also interpreted as an evidence of a dimeric protein[8]. […] According to a calibration curve obtained with globular proteins of known MW, these bands would correspond to an apparent MW (MW^SEC) of 35.9 kDa in the absence and of 36.7 kDa in the presence of the cross-linker, thus very similar to those obtained in our previo ...

[5] = Native ESI-MS oligomeric state of CIB2; format: physicochemical; conditions: 14 µM CIB2 in 200 mM ammonium acetate, pH 6.8; collision energy 60 V
Procedure: For native ESI-MS analyses (High-Mass Q-TOF II mass spectrometer, Waters/MSVision), CIB2 was prepared in 200 mM ammonium acetate, pH 6.8.

CSCC[C@H](NC(=O)[C@H](CCCCN)NC(=O)[C@H](Cc1c[nH]c2ccccc12)NC(=O)[C@H](CC(C)C)NC(=O)[C@H](CC(C)C)NC(=O)[C@H](CC(C)C)NC(C)=O)C(=O)NCC(=O)N[C@@H](Cc1ccccc1)C(=O)N[C@@H](Cc1ccccc1)C(=O)N[C@@H](CCCCN)C(=O)N[C@@H](CCCNC(=N)N)C(=O)N[C@@H](C)C(=O)N[C@@H](CCCCN)C(=O)N[C@@H](Cc1c[nH]cn1)C(=O)N1CCC[C@H]1C(=O)N[C@@H](CCC(=O)O)C(N)=O [α7B_M] (Ac-LLLWKMGFFKRAKHPE-NH2)
SPR interaction with CIB2 ([1]; His-CIB2 capture (7.5 µM peptide, or 230 nM–30 μM) and amine-coupled untagged CIB2 (7.5–30 µM), 1 mM Mg^2+, 2 mM Ca^2+, experiments repeated 4 times): binds to CIB2 significantly stronger than the control peptide α7B_Scrb | first-event affinity in Mg^2+ + Ca^2+ compared to Mg^2+ alone ([1]; KD^app1): roughly half affinity | faster dissociation of the second CIB2 molecule in co-presence of Mg^2+ and Ca^2+ ([1]; Mg^2+ + Ca^2+ vs Mg^2+): 2.5 times | affinity for CIB2 ([1]; SPR): relatively low affinity interaction | ka2 association rate constant, CIB2-α7B_M-CIB2 complex ([1]; bivalent analyte model, 1 mM Mg^2+ 2 mM Ca^2+, pH 7.5, N = 15): (4.2 ± 0.5) × 10^−4 RU^−1s^−1 | ka2 association rate constant, CIB2-α7B_M-CIB2 complex ([1]; bivalent analyte model, 1 mM Mg^2+, 230 nM–30 μM, pH 7.5, N = 16): (1.9 ± 0.4) × 10^−3 RU^−1s^−1 | kon ([1]; bivalent analyte model, 1 mM Mg^2+, 20 mM HEPES pH 7.5, 150 mM KCl, 1 mM DTT, 50 µM EDTA, 0.005% Tween, N = 16): 31000 M⁻¹ s⁻¹ | association of first CIB2 faster in sole Mg^2+ vs co-presence of Ca^2+ (fold) ([1]; first binding event, Mg^2+ vs Mg^2+ + Ca^2+): 2 fold | dissociation from CIB2 ([1]; followed for 240 s, flow rate 20 μl min−1): complete protein-peptide dissociation | koff ([1]; pH 7.5, bivalent analyte model, 1 mM Mg^2+ 2 mM Ca^2+, pH 7.5, N = 15, read-out: kd1 dissociation rate constant, CIB2-α7B_M complex): 0.4 s⁻¹ | koff ([1]; pH 7.5, bivalent analyte model, 1 mM Mg^2+ 2 mM Ca^2+, pH 7.5, N = 15, read-out: kd2 dissociation rate constant, CIB2-α7B_M-CIB2 complex): 0.053 s⁻¹ | koff ([1]; pH 7.5, bivalent analyte model, 1 mM Mg^2+, 230 nM–30 μM, pH 7.5, N = 16, read-out: kd1 dissociation rate constant, CIB2-α7B_M complex): 0.36 s⁻¹ | koff ([1]; pH 7.5, bivalent analyte model, 1 mM Mg^2+, 230 nM–30 μM, pH 7.5, N = 16, read-out: kd2 dissociation rate constant, CIB2-α7B_M-CIB2 complex): 0.02 s⁻¹ | kon ([1]; pH 7.5, bivalent analyte model, 1 mM Mg^2+ 2 mM Ca^2+, pH 7.5, N = 15): 16000 M⁻¹ s⁻¹ | Kd ([1]; 1 mM Mg^2+ 2 mM Ca^2+, pH 7.5, N = 15): 25 ± 5 µM | Kd ([1]; 1 mM Mg^2+, pH 7.5, N = 16): 11.6 ± 1.8 µM | association of second CIB2 faster in sole Mg^2+ vs co-presence of Ca^2+ (fold) ([1]; second binding event, Mg^2+ vs Mg^2+ + Ca^2+): 5 fold

B1: CIB2: Recombinant human CIB2, Ca^2+ and Mg^2+-binding protein (protein)
chain: T1 sequence (O75838 1-187)
modifications: left off: His tag, end not stated, cleaved
hydrodynamic diameter d^Ca ([2]; Ca^2+, collected immediately after SEC): 8.18 nm | hydrodynamic diameter d^Mg ([2]; Mg^2+, A1 and A2 collected in one sample): 8.43 nm and 8.4 nm | degradation without trypsin [3]: some propensity to degradation | apparent MW (MW^SEC), previous work [4]: 37–39 kDa | oligomeric state, native MS [5]: no signals of CIB2 dimers, nor higher order oligomers were detected
